Values of other authors, collected in patent publication US4199515A (priority 1978, dated 1980).

Tested on: gram-positive bacteria
Conditions: background statement

In the case of `CO[C@@H]1[C@H](C)[C@H]([C@]2(C)CC[C@H]([C@]3(C)CC[C@]4(C[C@H](OC)[C@@H](C)[C@@H]([C@@H](C)[C@H]5O[C@@](O)([C@H](C)C(=O)O)[C@H](C)[C@@H](OC)[C@H]5C)O4)O3)O2)O[C@H]1[C@H]1O[C@](C)(O)[C@H](C)[C@@H](OC)[C@@H]1C` [Lonomycin], the “activity to gram positive bacteria” value is given as “activity to gram positive bacteria”.
